Consider 21 compounds from patent US10294236B2, “Compounds as rearranged during transfection (RET) inhibitors” (GLAXOSMITHKLINE INTELLECTUAL PROPERTY DEVELOPMENT LIMITED, priority 2014, dated 2019).

SMILES strings stand for the structures.

The assay addresses T1, Human RET kinase cytoplasmic domain (Homo sapiens, UniProt P07949).
T1 construct: made in house
T1 sequence (P07949 658-1114): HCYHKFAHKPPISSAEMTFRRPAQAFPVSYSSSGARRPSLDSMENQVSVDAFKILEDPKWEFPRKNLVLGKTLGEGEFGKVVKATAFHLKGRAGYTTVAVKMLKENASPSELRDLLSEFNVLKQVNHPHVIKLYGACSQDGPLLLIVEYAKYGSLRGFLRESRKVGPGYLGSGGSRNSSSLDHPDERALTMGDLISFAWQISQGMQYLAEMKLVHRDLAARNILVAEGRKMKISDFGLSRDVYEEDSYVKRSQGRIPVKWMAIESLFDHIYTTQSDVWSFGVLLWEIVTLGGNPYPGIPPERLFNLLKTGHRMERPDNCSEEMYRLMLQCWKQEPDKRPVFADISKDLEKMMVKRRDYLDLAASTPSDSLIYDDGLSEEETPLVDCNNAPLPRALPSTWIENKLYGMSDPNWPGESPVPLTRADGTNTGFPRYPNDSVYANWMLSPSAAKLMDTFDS
Put plainly: RET kinase enzymatic assay. The assay is classed as biochemical. The method, then: GST-RET was purified using glutathione sepharose chromatography. The RET kinase enzymatic assay was performed in a total volume of 10 uL with increasing concentrations of RET kinase inhibitor as a singlet in a 384 well format as follows: RET inhibitor compound plates are prepared by adding 100 nL of RET inhibitor at different concentrations to a 384-well plate. 5 μL/well of a 2× enzyme mix (50 mM HEPES (4-(2-hydroxyethyl)-1-piperazineethanesulfonic acid); 1 mM CHAPS (3-[(3-cholamidopropyl)dimethylammonio]-1-propanesulfonate); 0.1 mg/mL BSA (bovine serum albumin); 1 mM DTT (dithiothreitol); 0.2 nM RET kinase) was added to the 384-well plate and incubated for 30 minutes at 23° C. 5 µL/well of a 2× substrate mix (50 mM HEPES; 1 mM CHAPS; 0.1 mg/mL BSA; 20 μM adenosine triphosphate; 20 mM MgCl2 and 1 μM biotinylated peptide substrate) was added and incubated for 1 hour at 23° C. […] IC50s were fitted using GraphPad Prism to a sigmoidal dose response.

In general, IC50 refers to the concentration needed to halve the response being measured. Higher therefore signals weaker potency in that assay. `CC1(Oc2ccc(NC(=O)Nc3ccc(-c4c[nH]c(=O)c5c4OCC5)cc3F)cc2C(F)(F)F)COC1` [Example 22, 1-(2-Fluoro-4-(4-oxo-2,3,4,5-tetrahydrofuro[3,2-c]pyridin-7-yl)phenyl)-3-(4-((3-methyloxetan-3-yl)oxy)-3-(trifluoromethyl)phenyl)urea] yielded an IC50 of less than 100 nM.

Consider `CCOc1cc(-c2ncc(NC(=O)Nc3ccc(C(C)(C)C#N)c(C(F)(F)F)c3)c(C)n2)c[nH]c1=O` [Example 23, 1-(4-(2-Cyanopropan-2-yl)-3-(trifluoromethyl)phenyl)-3-(2-(5-ethoxy-6-oxo-1,6-dihydropyridin-3-yl)-4-methylpyrimidin-5-yl)urea], for which the IC50 was less than 100 nM.

The compound `CCOc1cc(=O)[nH]cc1-c1ncc(NC(=O)Nc2ccc(C(C)C#N)c(C(F)(F)F)c2)c(C)n1` (stereo not drawn) [Example 24, 1-(4-(1-Cyanoethyl)-3-(trifluoromethyl)phenyl)-3-(2-(4-ethoxy-6-oxo-1,6-dihydropyridin-3-yl)-4-methylpyrimidin-5-yl)urea] had an IC50 of less than 100 nM.

Compound `CCOc1cc(-c2ncc(NC(=O)Nc3ccc(C(C)C#N)c(C(F)(F)F)c3)c(C)n2)c[nH]c1=O` (stereo not drawn) [Example 25, 1-(4-(1-Cyanoethyl)-3-(trifluoromethyl)phenyl)-3-(2-(5-ethoxy-6-oxo-1,6-dihydropyridin-3-yl)-4-methylpyrimidin-5-yl)urea] registered an IC50 of less than 100 nM.

Compound `CCOc1cc(=O)[nH]cc1-c1ncc(NC(=O)Nc2ccc(C(C)(C)C#N)c(C(F)(F)F)c2)c(C)n1` [Example 26, 1-(4-(2-Cyanopropan-2-yl)-3-(trifluoromethyl)phenyl)-3-(2-(4-ethoxy-6-oxo-1,6-dihydropyridin-3-yl)-4-methylpyrimidin-5-yl)urea] displayed an IC50 of less than 100 nM.

On to `CCOc1cc(-c2ccc(NC(=O)Nc3ccc(OC4(C)COC4)c(C(F)(F)F)c3)nc2)c[nH]c1=O` [Example 27, 1-(5′-Ethoxy-6′-oxo-1′,6′-dihydro-[3,3′-bipyridin]-6-yl)-3-(4-((3-methyloxetan-3-yl)oxy)-3-(trifluoromethyl)phenyl)urea], for which the 50% inhibitory concentration (IC50) is less than 100 nM.

`CCOc1cc(=O)[nH]cc1-c1ncc(NC(=O)Nc2cnc(C(C)(C)O)c(C(F)(F)F)c2)c(C)n1` [Example 28, 1-(2-(4-Ethoxy-6-oxo-1,6-dihydropyridin-3-yl)-4-methylpyrimidin-5-yl)-3-(6-(2-hydroxypropan-2-yl)-5-(trifluoromethyl)pyridin-3-yl)urea] yielded an IC50 of less than 100 nM.

In turn, `CCOc1cc(-c2ncc(NC(=O)Nc3cnc(C(C)(C)O)c(C(F)(F)F)c3)c(C)n2)c[nH]c1=O` [Example 29, 1-(2-(5-Ethoxy-6-oxo-1,6-dihydropyridin-3-yl)-4-methylpyrimidin-5-yl)-3-(6-(2-hydroxypropan-2-yl)-5-(trifluoromethyl)pyridin-3-yl)urea] returned an IC50 of less than 100 nM.

Regarding `CCOc1cc(-c2ccc(NC(=O)Nc3ccc(CN4CCN(CC)CC4)c(C(F)(F)F)c3)c(C(F)F)c2)c[nH]c1=O` [Example 30, 1-(2-(Difluoromethyl)-4-(5-ethoxy-6-oxo-1,6-dihydropyridin-3-yl)phenyl)-3-(4-((4-ethylpiperazin-1-yl)methyl)-3-(trifluoromethyl)phenyl)urea], the IC50 is less than 100 nM.

In the case of `CCOc1cc(Oc2ccc(NC(=O)Nc3ccc(CN4CCN(CC)CC4)c(C(F)(F)F)c3)cc2)c[nH]c1=O` [Example 31, 1-(4-((5-Ethoxy-6-oxo-1,6-dihydropyridin-3-yl)oxy)phenyl)-3-(4-((4-ethylpiperazin-1-yl)methyl)-3-(trifluoromethyl)phenyl)urea], the IC50 is less than 100 nM.

`CCOc1cc(-c2ncc(NC(=O)Nc3cc(C(F)(F)F)c(CN4CCN(CC)CC4)cc3F)c(C)n2)c[nH]c1=O` [Example 32, 1-(2-(5-Ethoxy-6-oxo-1,6-dihydropyridin-3-yl)-4-methylpyrimidin-5-yl)-3-(4-((4-ethylpiperazin-1-yl)methyl)-2-fluoro-5-(trifluoromethyl)phenyl)urea] registered a half-inhibitory concentration (IC50) of less than 100 nM.

With `CCOc1cc(-c2nc(C)c(NC(=O)Nc3ccc(CN4CCN(CC)CC4)c(C(F)(F)F)c3)c(C)n2)c[nH]c1=O` [Example 33, 1-(2-(5-Ethoxy-6-oxo-1,6-dihydropyridin-3-yl)-4,6-dimethylpyrimidin-5-yl)-3-(4-((4-ethylpiperazin-1-yl)methyl)-3-(trifluoromethyl)phenyl)urea], the IC50 was less than 100 nM.

`CCOc1nc(=O)[nH]cc1-c1ccc(NC(=O)Nc2ccc(OC3(C)COC3)c(C(F)(F)F)c2)c(F)c1` [Example 34, 1-(4-(4-Ethoxy-2-oxo-1,2-dihydropyrimidin-5-yl)-2-fluorophenyl)-3-(4-((3-methyloxetan-3-yl)oxy)-3-(trifluoromethyl)phenyl)urea] showed an IC50 of less than 100 nM.

Take `CCOc1[nH]c(=O)ccc1-c1ccc(NC(=O)Nc2ccc(OC3(C)COC3)c(C(F)(F)F)c2)c(F)c1` [Example 35, 1-(4-(2-Ethoxy-6-oxo-1,6-dihydropyridin-3-yl)-2-fluorophenyl)-3-(4-((3-methyloxetan-3-yl)oxy)-3-(trifluoromethyl)phenyl)urea]: the IC50 is less than 100 nM.

In turn, `CC1(Oc2ccc(NC(=O)Nc3ccc(-c4c[nH]c(=O)c(F)c4)cc3F)cc2C(F)(F)F)COC1` [Example 36, 1-(2-Fluoro-4-(5-fluoro-6-oxo-1,6-dihydropyridin-3-yl)phenyl)-3-(4-((3-methyloxetan-3-yl)oxy)-3-(trifluoromethyl)phenyl)urea] yielded a concentration for half-maximal inhibition (IC50) of less than 100 nM.

Consider `CC1(Oc2ccc(NC(=O)Nc3ccc(-c4c[nH]c(=O)cc4F)cc3F)cc2C(F)(F)F)COC1` [Example 37, 1-(2-Fluoro-4-(4-fluoro-6-oxo-1,6-dihydropyridin-3-yl)phenyl)-3-(4-((3-methyloxetan-3-yl)oxy)-3-(trifluoromethyl)phenyl)urea], for which the concentration for half-maximal inhibition (IC50) was less than 100 nM.

`CCOc1cc(=O)[nH]cc1-c1ncc(NC(=O)Nc2cccc(C(F)(F)F)c2)c(C)n1` [Example 38, 1-(2-(4-Ethoxy-6-oxo-1,6-dihydropyridin-3-yl)-4-methylpyrimidin-5-yl)-3-(3-(trifluoromethyl)phenyl)urea] gave an IC50 of less than 100 nM.

Take `Cc1nc(-c2c[nH]c(=O)c3occc23)ncc1NC(=O)Nc1cnc(C(C)(C)O)c(C(F)(F)F)c1` [Example 39, 1-(6-(2-Hydroxypropan-2-yl)-5-(trifluoromethyl)pyridin-3-yl)-3-(4-methyl-2-(7-oxo-6,7-dihydrofuro[2,3-c]pyridin-4-yl)pyrimidin-5-yl)urea]: the half-maximal inhibitory concentration (IC50) is less than 100 nM.

`Cc1[nH]c(=O)ccc1-c1ccc(NC(=O)Nc2ccc(OC3(C)COC3)c(C(F)(F)F)c2)c(F)c1` [Example 40, 1-(2-Fluoro-4-(2-methyl-6-oxo-1,6-dihydropyridin-3-yl)phenyl)-3-(4-((3-methyloxetan-3-yl)oxy)-3-(trifluoromethyl)phenyl)urea] showed an IC50 of less than 100 nM.

Take `CCOc1cc(-c2cnc(NC(=O)Nc3ccc(CC(C)(C)CO)c(C(F)(F)F)c3)c(C)n2)c[nH]c1=O` [Example 41, 1-(5-(5-Ethoxy-6-oxo-1,6-dihydropyridin-3-yl)-3-methylpyrazin-2-yl)-3-(4-(3-hydroxy-2,2-dimethylpropyl)-3-(trifluoromethyl)phenyl)urea]: the IC50 was less than 100 nM.

In turn, `CCOc1cc(-c2ncc(NC(=O)Nc3cccc(C(F)(F)F)c3)c(C)n2)c[nH]c1=O` [Example 42, 1-(2-(5-Ethoxy-6-oxo-1,6-dihydropyridin-3-yl)-4-methylpyrimidin-5-yl)-3-(3-(trifluoromethyl)phenyl)urea] came in with an IC50 of less than 100 nM.
